“And” between values parts separate entries of the source, which are not always exact repeats. Equal entries are not always repeated. Where two headings read alike, the source gives them in different places. Values belong to the molecule of their own block, whether it stands above or below them.
Assays:
[1] = ref [39], cited from earlier work
[2] = molecular target: T1, ABCB1 (Homo sapiens, UniProt P08183); assay: Transcellular transport in LLC-PK1 cells expressing ABCB1; type: in vitro ADME; conditions: 10 μM, LLC-PK1 cells overexpressing ABCB1
T1 sequence (P08183 whole entry): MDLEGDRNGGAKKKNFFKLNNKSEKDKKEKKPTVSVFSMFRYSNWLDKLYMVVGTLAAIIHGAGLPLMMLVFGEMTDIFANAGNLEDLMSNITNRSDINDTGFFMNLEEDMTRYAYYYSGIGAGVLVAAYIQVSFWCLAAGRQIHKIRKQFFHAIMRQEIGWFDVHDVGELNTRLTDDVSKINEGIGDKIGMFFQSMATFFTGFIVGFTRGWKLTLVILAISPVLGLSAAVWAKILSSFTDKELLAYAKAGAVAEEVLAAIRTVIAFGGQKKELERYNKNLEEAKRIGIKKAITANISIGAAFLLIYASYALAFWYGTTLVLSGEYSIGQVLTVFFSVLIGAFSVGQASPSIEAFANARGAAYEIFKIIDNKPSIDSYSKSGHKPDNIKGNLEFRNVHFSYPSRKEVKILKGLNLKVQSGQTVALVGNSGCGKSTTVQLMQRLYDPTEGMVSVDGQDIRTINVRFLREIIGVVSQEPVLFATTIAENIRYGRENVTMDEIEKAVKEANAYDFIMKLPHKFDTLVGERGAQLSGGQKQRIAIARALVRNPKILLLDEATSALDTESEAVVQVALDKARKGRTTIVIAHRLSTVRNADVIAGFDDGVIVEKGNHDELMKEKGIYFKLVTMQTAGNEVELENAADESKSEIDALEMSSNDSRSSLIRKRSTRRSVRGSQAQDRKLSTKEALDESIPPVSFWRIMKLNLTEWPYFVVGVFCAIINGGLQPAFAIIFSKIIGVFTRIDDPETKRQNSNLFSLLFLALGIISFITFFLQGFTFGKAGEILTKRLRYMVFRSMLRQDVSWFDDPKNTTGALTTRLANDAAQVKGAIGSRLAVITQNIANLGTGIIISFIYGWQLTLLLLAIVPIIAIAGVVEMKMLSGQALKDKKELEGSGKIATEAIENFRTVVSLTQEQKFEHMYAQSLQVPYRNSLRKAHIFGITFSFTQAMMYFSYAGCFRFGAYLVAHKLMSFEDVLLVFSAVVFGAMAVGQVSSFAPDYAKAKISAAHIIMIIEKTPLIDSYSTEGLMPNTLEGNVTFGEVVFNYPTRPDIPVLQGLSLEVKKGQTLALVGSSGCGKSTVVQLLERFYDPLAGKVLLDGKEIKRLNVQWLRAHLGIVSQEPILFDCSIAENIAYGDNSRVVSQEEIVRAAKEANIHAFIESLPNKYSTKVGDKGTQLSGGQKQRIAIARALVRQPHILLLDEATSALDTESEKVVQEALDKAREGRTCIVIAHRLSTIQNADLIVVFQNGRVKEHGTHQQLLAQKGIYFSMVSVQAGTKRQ

[3] = molecular target: T2, ABCC2 (Homo sapiens, UniProt Q92887); assay: Accumulation in MDCKII cells overexpressing ABCC2; type: in vitro ADME; conditions: 1 μM, 4 h
T2 sequence (Q92887 whole entry): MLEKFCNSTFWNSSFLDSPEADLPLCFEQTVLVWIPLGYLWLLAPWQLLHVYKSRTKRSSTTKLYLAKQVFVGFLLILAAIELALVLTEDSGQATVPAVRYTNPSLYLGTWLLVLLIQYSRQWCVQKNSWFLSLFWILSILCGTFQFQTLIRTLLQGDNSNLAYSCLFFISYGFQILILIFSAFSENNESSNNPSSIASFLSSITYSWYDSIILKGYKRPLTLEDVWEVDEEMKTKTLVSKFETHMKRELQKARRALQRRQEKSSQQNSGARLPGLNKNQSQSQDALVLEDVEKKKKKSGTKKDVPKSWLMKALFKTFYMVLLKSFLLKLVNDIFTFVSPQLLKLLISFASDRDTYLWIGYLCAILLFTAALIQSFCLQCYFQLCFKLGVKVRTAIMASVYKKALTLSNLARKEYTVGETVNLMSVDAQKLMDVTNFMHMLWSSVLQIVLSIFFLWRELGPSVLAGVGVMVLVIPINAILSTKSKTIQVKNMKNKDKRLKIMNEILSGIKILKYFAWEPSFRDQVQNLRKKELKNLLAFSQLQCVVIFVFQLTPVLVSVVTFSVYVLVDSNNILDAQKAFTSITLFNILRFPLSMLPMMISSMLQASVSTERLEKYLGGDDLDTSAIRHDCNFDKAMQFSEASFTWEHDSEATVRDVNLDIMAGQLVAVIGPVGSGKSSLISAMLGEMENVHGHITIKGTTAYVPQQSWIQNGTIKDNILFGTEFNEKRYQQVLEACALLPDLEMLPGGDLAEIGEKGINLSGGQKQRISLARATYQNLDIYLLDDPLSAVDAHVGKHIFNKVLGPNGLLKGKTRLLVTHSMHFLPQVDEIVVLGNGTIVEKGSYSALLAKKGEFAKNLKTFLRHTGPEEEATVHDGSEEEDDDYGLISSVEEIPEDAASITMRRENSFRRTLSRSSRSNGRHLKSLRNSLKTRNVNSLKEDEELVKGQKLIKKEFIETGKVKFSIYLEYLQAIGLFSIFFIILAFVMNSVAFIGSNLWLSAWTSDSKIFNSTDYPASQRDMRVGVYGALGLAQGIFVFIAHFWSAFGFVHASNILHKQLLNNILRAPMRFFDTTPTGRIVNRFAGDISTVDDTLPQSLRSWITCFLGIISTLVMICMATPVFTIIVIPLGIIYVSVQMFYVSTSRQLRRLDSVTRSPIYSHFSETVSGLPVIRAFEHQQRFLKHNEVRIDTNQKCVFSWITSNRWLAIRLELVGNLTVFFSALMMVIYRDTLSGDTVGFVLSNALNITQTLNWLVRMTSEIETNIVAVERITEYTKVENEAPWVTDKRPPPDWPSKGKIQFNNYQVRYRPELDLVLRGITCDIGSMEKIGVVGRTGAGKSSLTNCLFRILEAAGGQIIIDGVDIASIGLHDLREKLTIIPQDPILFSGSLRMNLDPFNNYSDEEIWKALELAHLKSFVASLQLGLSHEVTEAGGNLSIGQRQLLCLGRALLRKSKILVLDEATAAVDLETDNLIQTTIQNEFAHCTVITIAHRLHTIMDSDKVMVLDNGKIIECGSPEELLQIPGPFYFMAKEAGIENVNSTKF

[4] = molecular target: T3, ABCC4 (Homo sapiens, UniProt O15439); assay: Accumulation in Saos-2 cells overexpressing ABCC4; type: in vitro ADME; conditions: 1 μM, 4 h
T3 sequence (O15439 1-1325): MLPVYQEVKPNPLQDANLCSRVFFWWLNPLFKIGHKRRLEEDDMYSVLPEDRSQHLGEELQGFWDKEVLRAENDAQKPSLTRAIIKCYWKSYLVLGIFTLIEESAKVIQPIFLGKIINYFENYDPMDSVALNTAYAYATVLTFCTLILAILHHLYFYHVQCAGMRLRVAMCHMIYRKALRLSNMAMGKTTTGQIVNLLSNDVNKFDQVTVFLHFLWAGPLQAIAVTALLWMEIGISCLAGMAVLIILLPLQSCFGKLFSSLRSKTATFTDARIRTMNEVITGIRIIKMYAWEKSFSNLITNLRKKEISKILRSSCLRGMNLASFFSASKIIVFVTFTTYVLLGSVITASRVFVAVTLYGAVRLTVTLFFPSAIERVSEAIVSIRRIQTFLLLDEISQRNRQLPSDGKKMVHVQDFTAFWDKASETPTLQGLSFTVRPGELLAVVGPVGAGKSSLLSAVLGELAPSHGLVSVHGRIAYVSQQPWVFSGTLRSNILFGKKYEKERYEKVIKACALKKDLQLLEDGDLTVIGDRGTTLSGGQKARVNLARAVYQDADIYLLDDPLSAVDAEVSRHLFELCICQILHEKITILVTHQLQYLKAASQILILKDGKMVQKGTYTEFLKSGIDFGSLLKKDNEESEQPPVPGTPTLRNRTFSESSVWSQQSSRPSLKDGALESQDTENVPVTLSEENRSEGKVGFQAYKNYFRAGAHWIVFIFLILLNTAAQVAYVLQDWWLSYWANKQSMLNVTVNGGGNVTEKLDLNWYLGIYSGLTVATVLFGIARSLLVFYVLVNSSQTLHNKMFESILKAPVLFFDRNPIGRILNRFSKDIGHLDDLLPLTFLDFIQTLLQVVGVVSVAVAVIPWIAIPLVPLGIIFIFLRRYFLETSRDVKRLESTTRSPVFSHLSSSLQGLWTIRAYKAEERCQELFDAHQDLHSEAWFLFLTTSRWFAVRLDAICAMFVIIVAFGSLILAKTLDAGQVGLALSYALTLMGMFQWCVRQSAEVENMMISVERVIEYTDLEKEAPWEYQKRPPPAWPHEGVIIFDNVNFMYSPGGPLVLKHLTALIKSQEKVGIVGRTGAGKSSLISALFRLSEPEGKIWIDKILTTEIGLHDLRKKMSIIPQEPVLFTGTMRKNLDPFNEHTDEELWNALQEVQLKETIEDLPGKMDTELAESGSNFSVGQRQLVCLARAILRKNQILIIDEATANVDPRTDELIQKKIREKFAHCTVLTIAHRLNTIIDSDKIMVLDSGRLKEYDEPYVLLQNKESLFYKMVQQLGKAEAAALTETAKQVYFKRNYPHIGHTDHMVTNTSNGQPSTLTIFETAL

[5] = molecular target: T1, ABCB1; assay: Inhibition of calcein-AM efflux in LLC-PK1 cells expressing ABCB1; type: cell-based
[6] = molecular target: T2, ABCC2; assay: Inhibition of ABCC2-mediated docetaxel efflux; type: cell-based; conditions: for Inhibition of docetaxel efflux: 20 μM sorafenib or sunitinib, or 50 μM MK571, 5 μM docetaxel, 4 h, cells overexpressing ABCC2
[7] = molecular target: T3, ABCC4; assay: Inhibition of ABCC4-mediated PMEA efflux in Saos-2 cells; type: cell-based; conditions: for Inhibition of PMEA efflux: 20 μM sorafenib or sunitinib, or 50 μM MK571, 4 h, cells overexpressing ABCC4
[8] = molecular target: T2, ABCC2; assay: Vanadate sensitive ATPase assay of ABCC2 in membrane vesicles; type: biochemical; conditions: activation test, 0.14-300 μM, 10 min, concentration dependent
[9] = Brain penetration and brain concentration in mice; type: in vivo
[10] = test system: OATP1A2, OATP1B1, OATP1B3, OCT1, OAT2, OCTN1 and OCTN2; conditions: oocytes or HEK293 cells; sorafenib 0.35-1.5 μM or sunitinib 0.15-0.45 μM, 1 h
[11] = molecular target: ABCG2 (Homo sapiens, UniProt Q9UNQ0); conditions: 1 μM, 4 h, Saos-2 cells
ABCG2 (Homo sapiens, UniProt Q9UNQ0), sequence (Q9UNQ0 whole entry): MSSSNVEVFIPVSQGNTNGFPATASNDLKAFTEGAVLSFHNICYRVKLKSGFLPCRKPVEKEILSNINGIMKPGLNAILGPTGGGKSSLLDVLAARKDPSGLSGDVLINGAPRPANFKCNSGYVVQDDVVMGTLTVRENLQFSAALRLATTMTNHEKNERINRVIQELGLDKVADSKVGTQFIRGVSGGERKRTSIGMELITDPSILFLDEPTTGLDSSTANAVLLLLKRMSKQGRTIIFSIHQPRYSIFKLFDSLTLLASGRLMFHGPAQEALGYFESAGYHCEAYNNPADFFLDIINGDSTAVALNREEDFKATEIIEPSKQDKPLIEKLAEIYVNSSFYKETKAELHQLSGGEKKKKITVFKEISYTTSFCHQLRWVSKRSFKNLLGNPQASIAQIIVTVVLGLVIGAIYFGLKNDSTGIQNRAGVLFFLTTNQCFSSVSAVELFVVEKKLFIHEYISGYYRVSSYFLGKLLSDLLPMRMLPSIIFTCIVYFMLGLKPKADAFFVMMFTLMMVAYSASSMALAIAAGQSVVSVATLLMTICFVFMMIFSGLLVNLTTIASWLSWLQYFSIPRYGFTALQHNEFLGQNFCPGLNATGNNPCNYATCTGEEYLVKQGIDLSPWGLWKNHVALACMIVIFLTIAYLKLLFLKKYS

[12] = test system: Abcb1; conditions: single oral dose, sorafenib 40 mg/kg or sunitinib 20 mg/kg
[13] = test system: Abcb1; conditions: brain concentration at 4 h / plasma AUC0-4h; oral sorafenib 40 mg/kg or sunitinib 20 mg/kg
[14] = test system: acute myelogenous leukemia; conditions: sorafenib with cytarabine/idarubicin, cited from earlier work
[15] = test system: Abcb1; conditions: mice lacking ABCB1; ref [42]; cited from earlier work
[16] = test system: CYP3a; conditions: CYP3a-/- knockout mice; ref [43]; cited from earlier work
[17] = wild-type murine models, cited from earlier work
[18] = test system: Abcb1; conditions: Abcb1 knockout mice; ref [6], [44]; cited from earlier work
[19] = test system: Abcb1 and Abcg2; conditions: mice lacking both Abcb1 and Abcg2; ref [6], [44]; cited from earlier work
[20] = test system: ABCB1 or ABCC2; conditions: mice lacking one or both transporters (ABCB1, ABCC2); ref [40]; cited from earlier work
[21] = molecular target: T4, OCTN2 (Homo sapiens, UniProt O76082); assay: Uptake in HEK293 cells overexpressing OCTN2; type: in vitro ADME; conditions: HEK293 cells expressing OCTN2, 1 h
T4 sequence (O76082 1-557): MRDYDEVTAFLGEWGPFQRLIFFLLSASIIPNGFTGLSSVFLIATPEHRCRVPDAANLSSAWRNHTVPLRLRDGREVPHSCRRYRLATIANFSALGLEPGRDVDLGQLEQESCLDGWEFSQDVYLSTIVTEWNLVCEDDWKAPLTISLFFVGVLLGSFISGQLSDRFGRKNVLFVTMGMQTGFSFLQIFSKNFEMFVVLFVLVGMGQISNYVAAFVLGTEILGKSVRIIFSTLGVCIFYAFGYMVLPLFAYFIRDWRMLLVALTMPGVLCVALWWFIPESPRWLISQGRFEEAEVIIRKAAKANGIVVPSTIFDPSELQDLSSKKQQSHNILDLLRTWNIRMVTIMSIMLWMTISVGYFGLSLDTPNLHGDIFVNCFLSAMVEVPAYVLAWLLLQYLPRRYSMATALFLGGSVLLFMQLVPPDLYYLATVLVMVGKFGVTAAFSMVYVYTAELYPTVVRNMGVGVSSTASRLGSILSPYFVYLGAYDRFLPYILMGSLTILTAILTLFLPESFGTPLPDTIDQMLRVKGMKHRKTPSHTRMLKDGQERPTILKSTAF

[22] = test system: ABCB1; conditions: ref [38]; cited from earlier work
[23] = test system: ABCG2; conditions: ref [38]; cited from earlier work
[24] = 38 patients with newly diagnosed AML

SMILES: CCc1c2c(nc3ccc(O)cc13)-c1cc3c(c(=O)n1C2)COC(=O)[C@]3(O)CC [SN-38]
- Change in plasma exposure when co-administered with sorafenib [1]: minimal to no increases

- Transport by ABCB1 [2]: not transported
- Transport by ABCC2 [3]: not transported
- Transport by ABCC4 [4]: not transported
- IC50 [5]: 16.6 µM
- inhibition at 20 µM ([6]; read-out: Inhibition of docetaxel efflux): ~50%
- inhibition at 20 µM ([7]; SAOS-2, read-out: Inhibition of PMEA efflux): ~70%
- Effect on baseline ATPase activity of ABCC2 [8]: inhibited
- concentration at 4 h ([9]; FVB, mouse, brain, po, 40 mg/kg): ~300 ng/mL and 645 nM
- Brain penetration ([9]; wild-type mice, brain concentration at 4 h / plasma AUC0-4h, oral sorafenib 40 mg/kg or sunitinib 20 mg/kg): 3%
- Transport by ABCG2 [11]: not transported
- Plasma AUC0-4h, wild type versus Abcb1 knockout mice [12]: not significantly different
- Increase in brain penetration in knockout animals versus controls [13]: 1.9 fold
SMILES: CNC(=O)c1cc(Oc2ccc(NC(=O)Nc3ccc(Cl)c(C(F)(F)F)c3)cc2)ccn1 [sorafenib]
- Transport (uptake) by solute carriers compared to control [10]: none of the transporters tested facilitated
- Overall response rate [14, 24]: 83%
- Patients achieving a complete response [14, 24]: 70%
- Probability of survival ([14]; at 9 months follow-up): 82%
- Remission duration ([14]; at 9 months follow-up): 72%

SMILES: CC(=O)O[C@@]12CO[C@@H]1C[C@H](O)[C@@]1(C)C(=O)[C@H](O)C3=C(C)[C@@H](OC(=O)[C@H](O)[C@@H](NC(=O)OC(C)(C)C)c4ccccc4)C[C@@](O)([C@@H](OC(=O)c4ccccc4)[C@H]21)C3(C)C [docetaxel]
- Plasma exposure compared to wild-type mice [15]: unchanged
- Exposure compared to wild-type counterparts [16]: significanty increased

SMILES: Cc1nc(Nc2ncc(C(=O)Nc3c(C)cccc3Cl)s2)cc(N2CCN(CCO)CC2)n1 [dasatinib]
- Brain penetration ([17]; ref [45]): 3-8%

SMILES: CCc1c2c(nc3ccc(OC(=O)N4CCC(N5CCCCC5)CC4)cc13)-c1cc3c(c(=O)n1C2)COC(=O)[C@]3(O)CC [irinotecan]
- Change in plasma exposure when co-administered with sorafenib [1]: minimal to no increases

SMILES: Cc1ccc(NC(=O)c2ccc(CN3CCN(C)CC3)cc2)cc1Nc1nccc(-c2cccnc2)n1 [imatinib]
- Increase in brain penetration compared to wild-type mice [18]: 3.6 fold
- Increase in brain penetration compared to wild-type mice [19]: 12.6 fold
- Brain penetration ([17]; ref [6], [44]): 2-10%

- Inhibition of docetaxel efflux [6]: approximately 90%
- Inhibition of PMEA efflux [7]: ~100%
SMILES: CN(C)C(=O)CCSC(SCCC(=O)O)c1cccc(/C=C/c2ccc3ccc(Cl)cc3n2)c1 (stereo not drawn) [MK571]

SMILES: COc1cccc2c1C(=O)c1c(O)c3c(c(O)c1C2=O)C[C@@](O)(C(=O)CO)C[C@@H]3O[C@H]1C[C@H](N)[C@H](O)[C@H](C)O1 [doxorubicin]
- Increase in plasma exposure in combination with sorafenib ([1]; phase I trial): 20-30%
- Plasma exposure compared to wild-type mice [20]: unaltered

- Transport over control by OCTN2 [21]: 130%
- Transport by ABCB1 [2]: substantially reduced
- Inhibition of docetaxel efflux [6]: ~80%
- Inhibition of PMEA efflux [7]: ~80%
- Transport by ABCG2 [11]: not transported
- Plasma AUC0-4h, wild type versus Abcb1 knockout mice [12]: not significantly different
- Increase in brain penetration in knockout animals versus controls [13]: 2.9 fold
SMILES: CCN(CC)CCNC(=O)c1c(C)[nH]c(/C=C2\C(=O)Nc3ccc(F)cc32)c1C [sunitinib]
- Transport (uptake) by solute carriers compared to control [10]: none of the transporters tested facilitated
- Reversal of ABCB1-mediated resistance to romidepsin [22]: partially reverse
- Reversal of topotecan resistance mediated by ABCG2 [23]: completely reverse

Source: article PMC2774722 (Clinical cancer research : an official journal of the …, 2009)
